Source: patent US10828312B2, “Lithium cholesterol compositions, including, but not limited to lithium cholesterol sulfate compositions, and methods of treatment for Alzheimer's disease and neurological disorders” (priority 2018, dated 2020)
“Also recorded” adds a separate entry of the source. Counter-ions that a name gives are not always drawn. Like-named read-outs stand apart in the source and are kept apart here.

Columns and labels:
[1] = rats; cited from earlier work
[2] = all liposomes tested; cited from earlier work
[3] = test system: GSK3β (Ser9) phosphorylation; assay: Inhibitory GSK3β (Ser9) phosphorylation by Western blot in CHO cells; type: cell-based, Chinese Hamster; details: for maximal increase of pGSK3β: 18 h, vs no treatment; for concentration at which increase of pGSK3β starts: 18 h treatment, WB densitometry
Procedure: (§1) Human neuroblastoma SH-SY5Y cells (ATCC, Manassas, Va.) were cultured in DMEM/Nutrient Mixture F-12 (DMEM/F-12), 10% fetal bovine serum (FBS) and 15 mM HEPES. Chinese Hamster Ovary cells (CHO, Millipore Sigma), human embryonic kidney 293 cells expressing wild-type tau (HEK293/tau cells, ATCC) and mouse BV2 microglial cells (Creative Bioarray, Shirley, N.Y.) were cultured in DMEM with 10% FBS. SH-SY5Y cells and CHO cells were cultured in 24-well plates at a density of 2.5×10^5 cells/well. HEK293/tau cells were cultured in 24-well plates at a density of 3.5×10^5 cells/well, after being treated with Tetracycline (1:1000) for about 24 h to create high and stable cells lines (24).
(§2) Cells were treated with LiCS or NaCS at 0, 5, 10, 20, 40, 60 or 90 μM or LiCl at 0, 0.06, 0.15, 0.3, 0.6, 1.2 and 2.5 mM for 18 hours, followed by washing with ice-cold PBS 3×, lysis with cell lysis buffer and centrifugation at 1.4×10^4 rpm for 20 minutes. The supernatants were then used for analysis of GSK3β (Ser) and tau (Thr^231) phosphorylation by Western Blot (WB) and WB bands were calculated by Image J software (Java 1.6.0_20, NIH, USA).

[4] = test system: GSK3β (Ser9) phosphorylation; assay: Inhibitory GSK3β (Ser9) phosphorylation by Western blot in SH-SY5Y cells; type: cell-based, Human; details: for maximal increase of pGSK3β: 18 h; for concentration at which increase of pGSK3β starts: 18 h treatment, WB densitometry
Procedure: as §1, §2

[5] = test system: GSK3β (Ser9) phosphorylation; assay: Inhibitory GSK3β (Ser9) phosphorylation and total GSK3β by Western blot, statements covering both CHO and SH-SY5Y cells; type: cell-based; details: for effect on total GSK3β levels: any dose; for concentration at which increase of pGSK3β starts / maximal increase of pGSK3β: both CHO and SH-SY5Y cells (summary)
Procedure: as §1, §2

[6] = test system: tau (Thr231) phosphorylation; assay: Tau (Thr231) phosphorylation by Western blot in HEK293/tau cells; type: cell-based, human; details: for effect on total tau levels: any dose
Procedure: as §1, §2

[7] = test system: LPS-induced TNFα; type: cell-based, mouse; details: for concentration at which decrease of LPS-induced TNFα starts: LPS 100 ng/ml, 3 h
[8] = Lithium levels in blood plasma, brain, kidney and liver of mice after oral gavage (lithium ELISA); type: in vivo, C57BL/6J male mice
Procedure: C57BL/6J male mice at 4 months of age were treated with LiCl or LiCS at 0.04 mmol lithium/mouse p.o by gavage, followed by determination of lithium levels in blood plasma, brain, kidney and liver at 0.5, 1, 2, 3, 5 and 24 h after gavage by ELISA (N=2 mice/time point).
At 0.5, 1, 2, 3, 5 and 24 h after treating mice with LiCl or LiCS p.o. by gavage, mice were anesthetized with isoflourane (50 mg/kg) (Sigma-Aldrich), euthanized by bilateral thoracotomy, and blood was collected. Brain, kidney, and liver were harvested, homogenized in 400 μL ddH2O with Minilys tissue homogenizer (Bertin Technologies, Montigny-le-Bretonneux, France), and centrifuged for 30 min. Lithium levels in plasma and supematants from brain, kidney, and liver homogenates were determined by ELISA (Biovision, Milpitas, Calif.) following the manufacturer's instructions. Plasma, brain, kidney and liver homogenates from control mice were used to generate standard curve.

[9] = test system: autistic features; details: 2 mmol/kg i.p./day, Sprague-Dawley rats; cited from earlier work
[10] = mice; cited from earlier work
[11] = rats; cited from earlier work; remark: listed apart in the source
[12] = test system: AD pathology; details: cited from earlier work
[13] = 0.04 mmol lithium/mouse p.o., 0.5 and 5 h after gavage
[14] = long term oral administration, Tg2576 and 3XTg AD mice
[15] = NaCS at any dose between 5 and 90 μM, sulfate

O=C([O-])c1ccccc1O.[Li+] [lithium salicylate]
plasma lithium levels and elimination compared with lithium lactate [1]: longer elevated plasma lithium levels with a slower elimination process

CC(C)CCC[C@@H](C)[C@H]1CC[C@H]2[C@@H]3CC=C4C[C@@H](OS(=O)(=O)O)CC[C@]4(C)[C@H]3CC[C@]12C [cholesterol sulfate]
rate of intermembrane exchange relative to cholesterol [2]: approximately 10 fold

[Cl-].[Li+] [LiCl, lithium chloride]
maximal increase of pGSK3β ([3]; LiCl at 1.25 mM): 91%
concentration at which increase of pGSK3β starts [3]: 160 μM
maximal increase of pGSK3β ([4]; LiCl at 2.5 mM): 119%
concentration at which increase of pGSK3β starts [4]: 60 μM
extent of pGSK3β increase at 60 μM [5]: minimally
concentration levels at which pGSK3β increased ([5]; CHO and SH-SY5Y cells): high micromolar and low millimoloar levels
effect on total GSK3β levels ([5]; 18 h, CHO and SH-SY5Y cells): without altering; also recorded: neither LiCS, LiCl nor NaCS altered
concentration at which increase of pGSK3β starts [5]: 60 μM
maximal increase of pGSK3β ([5]; LiCl at 1.25 mM): approximately 100%
effect on ptau (Thr231) ([6]; LiCl at any dose between 60 μM and 1.25 mM, 18 h): not altered; also recorded: neither LiCl at any dose between 60 μM and 1.25 mM nor NaCS at any dose between 5 and 60 μM altered ptau; also recorded: ineffective even at millimolar levels; also recorded: failed to alter
effect on total tau levels ([6]; 18 h): neither LiCS, NaCS nor LiCl at any dose altered
concentration at which decrease of LPS-induced TNFα starts ([7]; BV2 cells): 5 mM
lithium levels in the brain [8, 13]: increased at 5 h
lithium levels in the kidney [8, 13]: increased at 0.5 and 5 h; also recorded: markedly increases
lithium levels in the liver [8, 13]: failed to increase at any time
autistic features (social interaction deficit, repetitive self-grooming, anxiety, depression) [9]: reversed autistic features

O=C(O)[C@@H]1CCCN1.O=C([O-])c1ccccc1O.[Li+] [LISPRO]
brain lithium levels compared with lithium carbonate or lithium salicylate [10]: significantly higher brain lithium levels
plasma lithium levels compared with lithium carbonate or lithium salicylate [10]: more steady plasma lithium levels
brain lithium levels compared with lithium carbonate or lithium salicylate [11]: significantly higher brain lithium levels
plasma lithium levels compared with lithium carbonate or lithium salicylate [11]: more steady plasma lithium levels
AD-related behavioral impairment ([12]; AD mouse models): reduced AD-related behavioral impairment
AD pathology (β-amyloid plaques, tau hyperphosphorylation, neuroinflammation, neuronal and synaptic protein loss, GSK3β activity) [12, 14]: reduced AD pathology
renal inflammation [12, 14]: without eliciting renal inflammation

CC(C)CCC[C@@H](C)[C@H]1CC[C@H]2[C@@H]3CC=C4C[C@@H](OS(=O)(=O)[O-])CC[C@]4(C)[C@H]3CC[C@]12C.[Li+] [LiCS, lithium cholesterol sulfate]
maximal increase of pGSK3β ([3]; LiCS at 60 μM): 92%
concentration at which increase of pGSK3β starts [3]: 10 μM
maximal increase of pGSK3β ([4]; LiCS at 90 μM): 90%
concentration at which increase of pGSK3β starts [4]: 10 μM
extent of pGSK3β increase at 60 μM [5]: maximally
concentration levels at which pGSK3β increased ([5]; CHO and SH-SY5Y cells): low micromolar levels
potency relative to LiCl in increasing inhibitory GSK3β (Ser9) phosphorylation ([5]; CHO and SH-SY5Y cells): 21-28 fold
effect on total GSK3β levels ([5]; 18 h, CHO and SH-SY5Y cells, sulfate): without altering; also recorded: neither LiCS, LiCl nor NaCS altered
potency compared with LiCl in increasing inhibitory GSK3β (Ser9) phosphorylation ([5]; both CHO and SH-SY5Y cells): more potent than LiCl
concentration at which increase of pGSK3β starts [5]: 10 μM
maximal increase of pGSK3β ([5]; LiCS at 60 μM): approximately 100%
concentration levels at which tau (Thr231) phosphorylation is reduced ([6]; HEK293/tau cells): at micromolar levels
concentration at which decrease of ptau (Thr231) starts ([6]; HEK293/tau cells, 18 h): 10 µM
maximal decrease of ptau (Thr231) ([6]; HEK293/tau cells, 18 h, LiCS at 40 μM): 63%
effect on total tau levels ([6]; 18 h, listed as UCS, sulfate): without altering
effect on total tau levels ([6]; 18 h, sulfate): neither LiCS, NaCS nor LiCl at any dose altered
effectiveness compared with LiCl in reducing microglial LPS-induced TNFα production ([7]; BV2 cells): more effective than LiCl
potency relative to LiCl for reducing LPS-induced TNFα production ([7]; BV2 cells): approximately 250 fold
concentration at which decrease of LPS-induced TNFα starts ([7]; BV2 cells): 0.02 mM
lithium levels in the liver [8, 13]: failed to increase at any time
lithium levels in the kidney ([8]; 0.04 mmol lithium/mouse p.o., 0.5 and 5 h after gavage, listed as UCS, sulfate): LiCl but not UCS treatment markedly increases
lithium levels in the kidney ([8]; 0.04 mmol lithium/mouse p.o., 0.5 and 5 h after gavage, sulfate): failed to increase at any time
lithium blood levels compared with LiCl oral treatment ([8]; oral treatment, mice): more stable and last longer
crossing of the blood-brain barrier ([8]; oral treatment, mice, compared with LiCl): more readily crosses the blood-brain barrier

CC(C)CCC[C@@H](C)[C@H]1CC[C@H]2[C@@H]3CC=C4C[C@@H](OS(=O)(=O)[O-])CC[C@]4(C)[C@H]3CC[C@]12C.[Na+] [NaCS, sodium cholesterol sulfate]
effect on pGSK3β ([5]; NaCS at 5-90 μM, 18 h, CHO and SH-SY5Y cells, sulfate): did not alter; also recorded: failed to alter
effect on total GSK3β levels ([5]; 18 h, CHO and SH-SY5Y cells): neither LiCS, LiCl nor NaCS altered
effect on ptau (Thr231) ([6]; NaCS at any dose between 5 and 60 μM, 18 h, sulfate): neither LiCl at any dose between 60 μM and 1.25 mM nor NaCS at any dose between 5 and 60 μM altered ptau
effect on ptau (Thr231) [6, 15]: did not alter; also recorded: failed to alter
effect on total tau levels ([6]; 18 h, sulfate): neither LiCS, NaCS nor LiCl at any dose altered
effect on LPS-induced TNFα level ([7]; NaCS at any concentration between 20 and 80 μM): not altered
effect on LPS-induced TNFα level [7, 15]: did not alter; also recorded: failed to alter
